Assays:
[1] = tested on: Influenza strain A549 A/WSN/33 (H1N1); experiment: microbe, parasite or virus in culture; format: cell-based; conditions: Influenza A virus, A549, 20 h, A549 cells, influenza A/WSN/33 (H1N1), 20 hours incubation; read-out: A549_A(H1N1) EC50
[2] = in vitro; conditions: human, CC50, uninfected A549 cells, CellTiter-Glo

| SMILES | EC50 [1] [nM] | CC50 [2] [nM] |
| --- | --- | --- |
| CC(C)[C@H]1/C=C/COc2cc(F)c(F)c3c2[C@@H](c2ccccc2SC3)N2CN1C(=O)c1c(O)c(=O)ccn12 (single isomer, unassigned) [Compound 169AA, (9*S,17a*S,*E)-24,25-difluoro-12-hydroxy-9-isopropyl-2,6,9,17a-tetrahydro-3,4-(epiprop[1]en[1]yl[3]ylidene)-10,17-methanobenzo[6,7]thiepino[4,5-c]pyrido[1,2-f][1]oxa[5,6,9]triazacyclotridecine-11,13-dione] | 48 | > 100 |
| CC(C)[C@@H]1/C=C/COc2cc(F)c(F)c3c2[C@@H](c2ccccc2SC3)N2CN1C(=O)c1c(O)c(=O)ccn12 (single isomer, unassigned) [Compound 169AB, (9*R,17a*S,*E)-24,25-difluoro-12-hydroxy-9-isopropyl-2,6,9,17a-tetrahydro-3,4-(epiprop[1]en[1]yl[3]ylidene)-10,17-methanobenzo[6,7]thiepino[4,5-c]pyrido[1,2-f][1]oxa[5,6,9]triazacyclotridecine-11,13-dione] | > 50 | > 100 |
| CC(C)[C@@H]1/C=C/COc2cc(F)c(F)c3c2[C@H](c2ccccc2SC3)N2CN1C(=O)c1c(O)c(=O)ccn12 (single isomer, unassigned) [Compound 169BB, (9*R,17a*R,*E)-24,25-difluoro-12-hydroxy-9-isopropyl-2,6,9,17a-tetrahydro-3,4-(epiprop[1]en[1]yl[3]ylidene)-10,17-methanobenzo[6,7]thiepino[4,5-c]pyrido[1,2-f][1]oxa[5,6,9]triazacyclotridecine-11,13-dione] | 1.3 | > 100 |
| CC[C@H]1/C=C/COc2c(ccc(Cl)c2F)[C@H](c2ccccc2)N2CN1C(=O)c1c(O)c(=O)ccn12 (single isomer, unassigned) [Compound 170AA, (9*S,18*S,E)-3-chloro-9-ethyl-4-fluoro-12-hydroxy-18-phenyl-6,9-dihydro-18H-10,17-methanobenzo[b]pyrido[1,2-f][1]oxa[5,6,9]triazacyclotridecine-11,13-dione] | > 50 | > 100 |
| CC[C@@H]1/C=C/COc2c(ccc(Cl)c2F)[C@H](c2ccccc2)N2CN1C(=O)c1c(O)c(=O)ccn12 (single isomer, unassigned) [Compound 170AB, (9*R,18*S,E)-3-chloro-9-ethyl-4-fluoro-12-hydroxy-18-phenyl-6,9-dihydro-18H-10,17-methanobenzo[b]pyrido[1,2-f][1]oxa[5,6,9]triazacyclotridecine-11,13-dione] | > 50 | > 100 |
| Cc1cccnc1[C@@H]1c2ccc(F)c(F)c2OC/C=C/C2(CCC2)N2CN1n1ccc(=O)c(O)c1C2=O (single isomer, unassigned) [Compound 171A, (18′*S,*E)-3′,4′-difluoro-12′-hydroxy-18′-(3-methylpyridin-2-yl)-6′H,18′H-spiro[cyclobutane-1,9′-[10,17]methanobenzo[b]pyrido[1,2-f][1]oxa[5,6,9]triazacyclotridecine]-11′,13′-dione] | 1.3 | > 100 |
| O=C1c2c(O)c(=O)ccn2N2CN1C1(/C=C/COc3c(ccc(F)c3F)[C@@H]2c2ccccn2)CCC1 (single isomer, unassigned) [Compound 172B, (18′*R,*E)-3′,4′-difluoro-12′-hydroxy-18′-(pyridin-2-yl)-6′H,18′H-spiro[cyclobutane-1,9′-[10,17]methanobenzo[b]pyrido[1,2-f][1]oxa[5,6,9]triazacyclotridecine]-11′,13′-dione] | > 50 | > 100 |
| O=C1c2c(O)c(=O)ccn2N2CN1[C@@H]1C[C@@H]1CCOc1cccc3c1[C@@H]2c1ccccc1SC3 (stereo in doubt) [Compound 166A, cis-(11a*RS,12a*RS,13S,20a*R)-15-hydroxy-6,11,11a,12,12a,20a-hexahydro-10H-7,8-(epiprop[1]en[1]yl[3]ylidene)-13,20-methanobenzo[6,7]thiepino[4,5-c]cyclopropa[j]pyrido[1,2-f][1]oxa[5,6,9]triazacyclotridecine-14,16-dione] | > 50 | > 100 |
| O=C1c2c(O)c(=O)ccn2N2CN1CCC=CCc1ccccc1C2c1ccccc1 (stereo not shown) [Compound 1, 4-hydroxy-16-phenyl-7,8,11,16-tetrahydro-6,17-methanobenzo[k]pyrido[1,2-b][1,2,5]triazacyclotridecine-3,5-dione] | 43 | > 2000 |
| O=C1c2c(O)c(=O)ccn2N2CN1CCCCCCc1ccccc1C2c1ccccc1 (stereo not shown) [Compound 2, 15-hydroxy-2-phenyl-12,13,14,16-tetrahydro-11H-1(1,3)-pyrido[2,1-f][1,2,4]triazina-3(1,2)-benzenacyclononaphane-14,16-dione] | 354 | > 20000 |
| O=C1c2c(O)c(=O)ccn2N2CN1CCCCCc1ccccc1C2c1ccccc1 (stereo not shown) [Compound 4, 4-hydroxy-16-phenyl-7,8,9,10,11,16-hexahydro-6,17-methanobenzo[k]pyrido[1,2-b][1,2,5]triazacyclotridecine-3,5-dione] | 48 | > 4000 |
| O=C1c2c(O)c(=O)ccn2N2CN1C/C=C\COc1ccccc1[C@H]2c1ccccc1 [Compound 5A, (18R,Z)-12-hydroxy-18-phenyl-6,9-dihydro-18H-10,17-methanobenzo[b]pyrido[1,2-f][1]oxa[5,6,9]triazacyclotridecine-11,13-dione] | 8 | > 2000 |
| O=C1c2c(O)c(=O)ccn2N2CN1C/C=C\COc1ccccc1[C@@H]2c1ccccc1 [Compound 5B, (18S,Z)-12-hydroxy-18-phenyl-6,9-dihydro-18H-10,17-methanobenzo[b]pyrido[1,2-f][1]oxa[5,6,9]triazacyclotridecine-11,13-dione] | > 1000 | > 2000 |
| O=C1c2c(O)c(=O)ccn2N2CN1C/C=C\COc1ccccc1C2c1ccccc1 (stereo not shown) [Compound 5] | 26 | > 2000 |
| O=C1c2c(O)c(=O)ccn2N2CN1C/C=C/CCOc1cccc(c1)C2c1ccccc1 (stereo not shown) [Compound 6, (*E)-15-hydroxy-2-phenyl-12,13,14,16-tetrahydro-11H-4-oxa-1(1,3)-pyrido[2,1-f][1,2,4]triazina-3(1,3)-benzenacyclononaphan-7-ene-14,16-dione] | 6150 | > 20000 |
| O=C1c2c(O)c(=O)ccn2N2CN1CCCCOc1ccccc1C2c1ccccc1 (stereo not shown) [Compound 8, 12-hydroxy-18-phenyl-6,7,8,9-tetrahydro-18H-10,17-methanobenzo[b]pyrido[1,2-f][1]oxa[5,6,9]triazacyclotridecine-11,13-dione] | 59 | > 2000 |
| O=C1c2c(O)c(=O)ccn2N2CN1CCCCOc1ccccc1[C@H]2c1ccccc1 [Compound 8A, (18R)-12-hydroxy-18-phenyl-6,7,8,9-tetrahydro-18H-10,17-methanobenzo[b]pyrido[1,2-f][1]oxa[5,6,9]triazacyclotridecine-11,13-dione] | 13 | > 2000 |
| O=C1c2c(O)c(=O)ccn2N2CN1CCCCOc1ccccc1[C@@H]2c1ccccc1 [Compound 8B, (18S)-12-hydroxy-18-phenyl-6,7,8,9-tetrahydro-18H-10,17-methanobenzo[b]pyrido[1,2-f][1]oxa[5,6,9]triazacyclotridecine-11,13-dione] | 4130 | > 2000 |
| O=C1c2c(O)c(=O)ccn2N2CN1CCCCCOc1ccccc1C2c1ccccc1 (stereo not shown) [Compound 9, 15-hydroxy-2-phenyl-12,13,14,16-tetrahydro-11H-4-oxa-1(1,3)-pyrido[2,1-f][1,2,4]triazina-3(1,2)-benzenacyclononaphane-14,16-dione] | 453 | > 2000 |
| O=C1c2c(O)c(=O)ccn2N2CN1CC/C=C/COc1ccccc1[C@@H]2c1ccccc1 [Compound 10A, (2S,E)-15-hydroxy-2-phenyl-12,13,14,16-tetrahydro-11H-4-oxa-1(1,3)-pyrido[2,1-f][1,2,4]triazina-3(1,2)-benzenacyclononaphan-6-ene-14,16-dione] | > 1000 | > 2000 |
| O=C1c2c(O)c(=O)ccn2N2CN1CC/C=C/COc1ccccc1[C@H]2c1ccccc1 [Compound 10B, (2R,E)-15-hydroxy-2-phenyl-12,13,14,16-tetrahydro-11H-4-oxa-1(1,3)-pyrido[2,1-f][1,2,4]triazina-3(1,2)-benzenacyclononaphan-6-ene-14,16-dione] | 13 | > 2000 |
| O=C1c2c(O)c(=O)ccn2N2CN1CCCCCCc1ccccc1C2c1ccccn1 (stereo not shown) [Compound 11, 15-hydroxy-2-(pyridin-2-yl)-12,13,14,16-tetrahydro-11H-1(1,3)-pyrido[2,1-f][1,2,4]triazina-3(1,2)-benzenacyclononaphane-14,16-dione] | 363 | > 2000 |
| O=C1c2c(O)c(=O)ccn2N2CN1CCCCCc1ccccc1C2c1ccccn1 (stereo not shown) [Compound 12, 4-hydroxy-16-(pyridin-2-yl)-7,8,9,10,11,16-hexahydro-6,17-methanobenzo[k]pyrido[1,2-b][1,2,5]triazacyclotridecine-3,5-dione] | 86 | > 2000 |
| O=C1c2c(O)c(=O)ccn2N2CN1CC/C=C/CCc1ccccc1C2c1ccccc1 (stereo not shown) [Compound 14, (*E)-15-hydroxy-2-phenyl-12,13,14,16-tetrahydro-11H-1(1,3)-pyrido[2,1-f][1,2,4]triazina-3(1,2)-benzenacyclononaphan-6-ene-14,16-dione] | 48 | > 4000 |
| O=C1c2c(O)c(=O)ccn2N2CN1CCC/C=C\Cc1ccccc1C2c1ccccn1 (stereo not shown) [Compound 15, (Z)-15-hydroxy-2-(pyridin-2-yl)-12,13,14,16-tetrahydro-11H-1(1,3)-pyrido[2,1-f][1,2,4]triazina-3(1,2)-benzenacyclononaphan-5-ene-14,16-dione] | 635 | > 20000 |
| O=C1c2c(O)c(=O)ccn2N2CN1C/C=C/COCc1ccccc1C2c1ccccc1 (stereo not shown) [Compound 17, (E)-15-hydroxy-2-phenyl-12,13,14,16-tetrahydro-11H-5-oxa-1(1,3)-pyrido[2,1-f][1,2,4]triazina-3(1,2)-benzenacyclononaphan-7-ene-14,16-dione] | 77 | > 20000 |

Reference: patent US11312727B1, “Macrocyclic flu endonuclease inhibitors” (Janssen BioPharma, Inc., priority 2018, dated 2022)
